In PubChem BioAssay (NCI) one finds GI50 and TGI data, which are given here for 32 molecules.

Where “and” joins values, the source holds several entries; their conditions need not be identical. Equal entries are not always repeated.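 Five concentrations, 48 hours, 96-well plates. Here, GI50 denotes the concentration required for 50% inhibition of growth. At the TGI there is no net growth.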 Where only a bound is given, the exact number is not on record here.

For this assay, the system named is MDA-MB-468 breast. The experiment in a line: NCI tumour cell line growth inhibition, 48 h.
For `Oc1ccc(NC(=S)Nc2ccccc2)cc1`, the GI50 is > 100 µM and the TGI was > 100 µM.
Take `CCOC(=O)/C(=C/CC/C(C)=C/CC/C(C)=C/CCc1ccoc1)CC(=O)N1CCCCC1`: the GI50 was 2.11 µM and the TGI came to 7.26 µM.
For `CC(=O)N[C@H](C)[C@@H](O)[C@@H](C)[C@@H]1OC(=O)/C=C/C=C(C)\C=C\[C@]2(C)C[C@@H](NS(C)(=O)=O)C=C[C@@H]2/C=C(C)/C=C/[C@H]1C`, the GI50 was 0.00245 µM and 0.00435 µM; the TGI is 2.12 µM and 7.39 µM.
Turning to `O=C(NNc1nc2cc(F)cc(F)c2n2cccc12)c1ccncn1`, the GI50 was > 30 µM and the TGI is > 30 µM.
For the molecule `CN(C)c1ccc(C(=S)c2ccc(N(C)C)cc2)cc1`, the GI50 is 2.05 µM and the TGI amounted to 8.21 µM.
As to `COc1cc2c(Oc3ccc(NC(=O)C4(C(=O)Nc5ccc(F)cc5)CC4)cc3F)ccnc2cc1OCCCN1CCOCC1`, the GI50 was 0.92 µM and 1.05 µM; the TGI was 2.29 µM and 3.16 µM.
As for `CN1CCN(CCCOc2cccc3nc(Nc4cc(Cl)cc(Cl)c4)ccc23)CC1`, the GI50 was 1.69 µM and the TGI was determined as 3.22 µM.
As to `C[C@@H](Nc1nc(N[C@H](C)C(F)(F)F)nc(-c2cccc(Cl)n2)n1)C(F)(F)F`, the GI50 is 41.9 µM and the TGI is > 100 µM.
For `O=C(COc1ccc(/C=C2\Oc3ccc4ccccc4c3C2=O)cc1)c1ccc([N+](=O)[O-])cc1`, the GI50 is 1.07 µM and the TGI is 3.05 µM.
For `CC/C=C\C[C@H]1C/C=C2/C(=O)C=C[C@H]2C/C=C\CCCC(=O)O1`, in that order: 1.56 µM and 7.95 µM.
The corresponding values for `O=C(Nc1ccc(OS(=O)(=O)c2ccc(F)cc2)cc1)C12CC3CC(CC(C3)C1)C2` are 1.33 µM and > 100 µM.
The corresponding values for `CCN(C(=O)N1CCN(c2cc3c(cc2F)c(=O)c(C(=O)O)cn3C2CC2)CC1)c1nc(-c2ccccc2)cs1` are 2.52 µM and 8.82 µM.
On to `Clc1ccc(-c2cc(-c3ccccc3)nc(N3CCN(CCCNc4ccnc5cc(Cl)ccc45)CC3)n2)cc1`, for which the GI50 is 0.352 µM and the TGI stood at 1.61 µM.
The corresponding values for `COc1ccc(C(=O)/C=C/c2sc(Cl)nc2Cl)cc1` are 1.38 µM and 3.51 µM.
The corresponding values for `COc1ccccc1-n1cnc(N)c1C(=O)c1cc(OC)c(OC)c(OC)c1` are 1.85 µM and 6.57 µM.
Turning to `Cc1c2cnccc2c(C)c2c1c1cc(O)ccc1n2C(C)C`, the GI50 is 2.12 µM and the TGI is 4.74 µM.
The corresponding values for `C[C@@H]1CC[C@H]2[C@@H](C)C(O)O[C@@H]3O[C@]4(C)CC[C@@H]1[C@]32OO4` (some centres undefined) are 3.58 µM and 33.2 µM.
The corresponding values for `C=CC(=O)N[C@@H]1CN(c2nc(Nc3cn(C)nc3OC)c3ncn(C)c3n2)C[C@H]1F` are 0.0256 µM and 0.265 µM.
Regarding `Cc1cc(F)c(C(=O)Nc2cccc(-c3nncn3C(C)C)n2)cc1-n1cnc(C2CC2)c1`, the GI50 is 7.76 µM and the TGI stood at 83.3 µM.
Take `O=CC(OC(=O)c1ccccc1)C(OC(=O)c1ccccc1)C(COC(c1ccccc1)(c1ccccc1)c1ccccc1)OC(=O)c1ccccc1` (centres undefined): the GI50 was 11.8 µM and the TGI was found to be 26.9 µM.
For `O=c1cc(-c2ccc(Cl)cc2)[nH]c2ccccc12`, in that order: 18.6 µM and > 100 µM.
For `COc1ccc(-c2nn(-c3cccc(Cl)c3)cc2/C=C2\NC(=S)N(c3ccc(Cl)cc3)C2=O)cc1`, in that order: 3.03 µM and 6.89 µM.
For `C1=N[C@]23C(=N[C@H](N=C2NCc2ccco2)[C@]24N=CNC2=N[C@H]3N=C4NCc2ccco2)N1`, in that order: 26.6 µM and > 100 µM.
On to `COc1ccccc1C1C2=C(COC2=O)Oc2cc3c(cc21)OCO3` (centres undefined), for which the GI50 is 5.08 µM and the TGI is > 100 µM.
For `NC(N)=NN=c1c(=O)c2ccccc2c1=O`, in that order: 16.4 µM and 30.7 µM.
As to `Nc1nc(N)c2c(n1)NC(c1sc(Cl)nc1Cl)CC(c1ccccc1)=N2` (centres undefined), the GI50 was 2.12 µM and the TGI is 8.48 µM.
In the case of `CNC(=O)c1cc(Oc2ccc3nc(NC(=O)Nc4ccc(CN5CCOCC5)c(C(F)(F)F)c4)sc3c2)ccn1`, the GI50 was 1.45 µM and the TGI came to 4.95 µM.
The corresponding values for `Cc1cccc2c3c(sc12)C(c1ccc(F)cc1)C(C#N)=C(/N=C/c1ccc(Cl)cc1)O3` (centres undefined) are 0.383 µM and 12.6 µM.
With `O=C(NC1CCN(Cc2ccccc2)CC1)c1cc(-c2cccnc2)nc2ccc(Cl)cc12`, the GI50 is 4.48 µM and the TGI is 57 µM.
In the case of `C[C@@H](O)[C@@H](C)Oc1nc(Nc2ccc(S(=N)(=O)C3CC3)cc2)ncc1C(F)(F)F` (some centres undefined), the GI50 was 0.023 µM and the TGI turned out to be 0.0615 µM.
Consider `Cc1cccc2c(C3=C(c4cn(C)c5ccccc45)C(=O)NC3=O)cn(C)c12`, for which the GI50 was 13.9 µM and the TGI is > 25 µM.
With `Cc1nnc(C[C@@H]2C=C(c3ccc(Cl)cc3)c3ccccc3-n3c(C)nnc32)o1`, the GI50 was 0.745 µM and the TGI came to 22.8 µM.
